Consider one molecule from patent publication US11191790B2, “Biologically pure Faecalibacterium butyricigenerans strain, composition including the same and method for treating ulcerative colitis” (BGI SHENZHEN, priority 2016, dated 2021).

The assay deals with UC modeled mice (DSS-induced ulcerative colitis). Briefly: In vivo experiment in DSS-induced UC modeled mice. On the set-up: species or system C57bl/6 mice. As for the experimental part: With administration of AF52-21, saline or a positive drug, the therapeutic effect of Faecalibacterium butyricigenerans AF52-21 on the UC modeled mice was evaluated by observing body weight, mortality, fecal traits, occult/visual blood in stool, colon length, disease and activity index (DAI) and pathological parameters.
8 week-old C57bl/6 mice weighted 21 g±1 g in SPF grade were adaptively fed for one week. Then, 2% sodium dextran sulfate (DSS) was administered to the mice for 7 days to induce the UC modeled mice.
A total of 48 mice were randomly divided into four groups, with 12 mice in each group. The groups were as follows:
Group I: control group—normal mice without DSS induction;
Group II: UC modeled group—saline gavage after DSS induction;
Group III: UC treatment group—AF52-21 treatment after DSS induction;
Group IV: UC treatment group—positive drug (salicylazosulfapyridine, SASP) treatment after DSS induction.
UC modeled group: gavage with saline (0.85% NaCl).
AF52-21-treated group: administration with cultured AF52-21 in a stationary phase in a bacterial concentration of about 10^8 cfu/ml.
SASP-treated group: administration with 0.02 g/mL of aqueous SASP solution.
The mice in all groups were daily observed for food intake, spontaneous activities, body weight, fecal traits and occult/visual blood in stool. After DSS induction for 7 days, mice were treated according to the administration scheme in 4.3 for 2 weeks by daily gavage of 200 μL/mouse. After 14 days, mice in all groups were sacrificed for blood collection, colon collection for photographing and length-measuring, and collection of other organs for weighing. The colon was then stored in paraformaldehyde in a […] refrigerator.
The mice were given individual scores according to body weight, fecal traits and occult/visual blood in stool. The scoring criteria are as follows (Table 4).
The DAI is scored as the sum of the scores for body weight, fecal traits and occult blood/visual blood in stool.

[1] abbreviates: daily gavage 200 μL/mouse, AF52-21 about 10^8 cfu/ml, SASP 0.02 g/mL.
Setting [2] is: ratio of organ weight to body weight, x ± SD, after 14 days of treatment.
Where [3] appears, read: sum of scores for body weight, fecal traits, occult/visual blood in stool, daily gavage 200 μL/mouse.

As for `O=C(O)c1cc(/N=N/c2ccc(S(=O)(=O)Nc3ccccn3)cc2)ccc1O` [SASP, salicylazosulfapyridine], the “Mice died during the entire experiment” value (12 mice in each group, 5 mice died in the UC modeled group) was 2 mice. Where the note is “UC modeled mice, after 7 days 2% DSS, before treatment”, the “Body weight, DSS induction at Day 7” value is on record as 28.52 ± 3.12 g. Further, under “UC modeled mice, before DSS induction and before treatment (baseline of the group)”, the “Body weight, DSS induction at Day 0” value amounted to 30.12 ± 2.25 g. Besides, the colon length (after 14 days of treatment, UC modeled group 6.11 ± 0.90) is given as 6.54 ± 0.71. Moreover, under setting [1], the “Body weight, Treatment at Day 1” value is reported as 26.51 ± 3.31 g; the “Body weight, Treatment at Day 7” value is given as 27.60 ± 3.46 g; the “Body weight, Treatment at Day 14” value came out at 29.98 ± 3.32 g. In addition, the Weight gain/decrease rate (decrease rate of body weight, UC modeled group 8 ± 0.8% decrease) is 0.4 ± 0.2% (decrease rate). The Colon histopathology entry (histological sections of mouse intestinal mucosa, FIG. 5, compared with the UC modeled group) is “reduced thickness of colon wall; and reduced number of inflammatory cells infiltrating in submucosa”. Under setting [2], the Colon index came to 9.88 ± 2.76 mg/g, the Kidney index is on record as 13.24 ± 1.74 mg/g, the Liver index is on record as 41.56 ± 6.04 mg/g and the Spleen index came out at 6.24 ± 3.71 mg/g. In addition, under setting [2], the Thymus index came to 1.10 ± 0.39 mg/g. In addition, the “DAI score, DSS induction for 7 days” value (sum of scores for body weight, fecal traits, occult/visual blood in stool, before treatment) is reported as 7.70 ± 2.85. In addition, under setting [3], the “DAI score, Treatment for 7 days” value stood at 5.89 ± 2.21 and the “DAI score, Treatment for 14 days” value amounted to 3.98 ± 1.38.
